Publication PMC11125197, “Evaluation of Drug Blood-Brain-Barrier Permeability Using a Microfluidic Chip” (Pharmaceutics, 2024)

Key:
[1] = system: human BBB-on-a-chip (hBMEC, HBVP, NHA); assay: in vitro
Procedure: (§1) The design and construction of the BBB-on-a-chip were as reported previously. The chip (Emulate, #OCK-12) was composed of two parallel microchannels (top; 1 × 1 mm, bottom; 1 × 0.2 mm) separated by a porous polydimethysiloxane (PDMS) membrane (diameter, 7 μm; spacing, 40 μm; thickness, 50 μm, resulting in 2% porosity over a surface area of 0.171 cm^2 separating the two channels). The membrane was activated according to the manufacturer’s instructions and coated with the mixture of laminin (1 mg/mL), collagen IV (1 mg/mL), and fibronectin (1 mg/mL) in DPBS (Figure 1). Coated chips were incubated at 4 °C overnight, then at 37 °C for 1 h before seeding the cells. hBMEC cells (9 × 10^5 cells/mL) were 20 µL seeded into the bottom channel of the chip. The chip was immediately inverted and incubated at 37 °C for 4 h. After 4 h, hBMECs were prepared as previously described and re-injected into the bottom channel to mimic the vascular structure, as shown in right panel of Figure 2A.
(§2) Ten drugs (Table 1) were selected for BBB permeability analysis (CAF, CBZ, DES, LPM, CET, VIN, LP, NZD, DPZ, and SIM). […] We performed transport experiments for the basolateral-to-apical side and the apical-to-basolateral side.
(§3) Fifteen microliters of blood-and-brain medium was mixed with 135 μL internal standard (IS) solution (5 ng/mL disopyramide in acetonitrile). The mixture was vortexed briefly and centrifuged at 15,000 rpm for 5 min at 4 °C. […] Mobile phase A was 0.1% formic acid in water and mobile phase B was 0.1% formic acid in acetonitrile. Chromatographic separation was performed on a Luna C18 column (100 × 2 mm (i.d.) 3 μm, Phenomenex) with a Security Guard C18 guard column (4 mm × 20 mm (i.d.), Phenomenex) by gradient elution at a flow rate of 0.3 mL/min (Table 2). The mass spectrometer was operated in positive ion mode for all compounds, and the carryover was checked by the injection of a blank in between samples.
(§4) (1) Ctn,channel=Atn−1, channel+C(tn−tn−1),channel·tn−tn−1·channel flow rate/tn·channel flow rate, where Achannel is the drug amount of the channel; tn is time point; C(tn−tn−1),channel is the concentration of drug pooled from tn to tn−1; channel flow rate, fluid flow rate in channel;
(§5) (2) Cchannel=Css, channel · t/CT50, channel+t, where CT50, channel is the time at a half steady state concentration of channel; t, time.
(§6) Kp , the partition coefficient, in the BBB-on-a-chip was calculated by dividing the calculated Css, brain by the Css, blood value of the drug passing through the bottom channel, as shown in Equation (3). (3) Kp=Css, brain/Css, blood
(§7) J represents the rate at which the amount of compound moves from the bottom channel to the top channel, which was calculated by determining the slope of the time-versus-amount curve at 0 h to the point at which a steady state (90% of Tss ) was reached. Papp can be calculated by dividing J by the surface area of the membrane (SA) separating the two channels and the initial concentration in the bottom channel. (4) Papp=J/MW/SA·C0,blood ,J=dAbrain/dt, where MW is molecular weight of each drug.

in vitro = conditions: human
Procedure: as §1, §2, §3, §4, §5, §6, §7

[2] = system: human BBB-on-a-chip (hBMEC, HBVP, NHA); assay: BBB-on-a-chip permeability, basolateral to apical (brain to blood channel), LC-MS/MS; type: in vitro ADME; conditions: 1 μM in top channel
From the text: Css, channel , the concentration in the channel at the steady state, was estimated using a simple Emax model Equation (2) with time (h) on the x-axis and concentration (ng/mL) on the y-axis.

[3] = 1 μM dosed, simple Emax model fit
[4] = 1 μM dosed, simple Emax model fit, sampling 1, 4, 9, 24 h
[5] = time to reach predicted 90% Css

Structure (SMILES) | CT50,brain (time at half steady state concentration of brain channel) [1, 3] | CT50,blood (time at half steady state concentration of blood channel) [1, 4] | tplateau,brain (plateau time for brain channel) [1, 5] | Cplateau,brain (concentration at plateau time of brain channel) ([1]; human) | Css,blood (steady state concentration of blood channel) ([1]; human) | Css,brain (steady state concentration of brain channel) ([1]; human) | Kp (in vitro) | Papp at 24 h, 1 μM (in vitro) | also measured
Nc1nc(OC(c2ccc(-c3cccc(F)c3)cc2)C(F)(F)F)cc(-c2ccc(C[C@H](N)C(=O)O)cc2)n1 (some centres unmarked) [LP533401] | 0.16 h | 6.80 h | 1.42 h |  |  |  |  |  | BBB permeability in words (apical to basolateral) [1]: low permeability; Papp (apparent permeability) [1]: 2.1693 10^−6cm/s; Css,blood (steady state concentration of blood channel) [1, 3]: 573.66 ng/mL; Css,brain (steady state concentration of brain channel) [1, 3]: 9.77 ng/mL; Kp (Brain/Blood), partition coefficient ([1]; human): 0.0170; Plateau reached in brain channel during the observed time ([1]; observation up to 24 h): reached plateau; Cplateau,brain (concentration at plateau time of brain channel) ([1]; predicted 90% Css): 8.7886 ng/mL
Cn1c(=O)c2c(ncn2C)n(C)c1=O [Caffeine, caffeine] |  |  |  | 44.8098 ng/mL | 114.47 ng/mL | 49.79 ng/mL | 0.435 |  | Plateau reached in brain channel during the observed time [1]: reached plateau; CT50,blood (time at half steady state concentration of blood channel) ([1]; human): 2.91 h; CT50,brain (time at half steady state concentration of brain channel) ([1]; human): 2.39 h; tplateau,brain (plateau time for brain channel) ([1]; human): 21.52 h; Papp (in vitro): 30 ×10⁻⁶ cm/s
NC(=O)N1c2ccccc2C=Cc2ccccc21 [Carbamazepine, carbamazepine] | 3.27 h | 1.98 h | 29.41 h | 28.6749 ng/mL | 112.88 ng/mL | 31.86 ng/mL |  | 15.8 ×10⁻⁶ cm/s | BBB permeability in words (apical to basolateral) ([1]; BBB-on-a-chip, 1 μM): high permeabilities; Kp at 1 μM (in vitro): 0.282
CNCCCN1c2ccccc2CCc2ccccc21 [Desipramine, desipramine] | 34.47 h | 57.44 h | 310.22 h |  |  |  |  | 32.5 ×10⁻⁶ cm/s | Css,blood (steady state concentration of blood channel) [1, 3]: 234.83 ng/mL; Css,brain (steady state concentration of brain channel) [1, 3]: 73.93 ng/mL; Cplateau,brain (concentration at plateau time of brain channel) ([1]; predicted 90% Css): 66.5383 ng/mL
CN(C)C(=O)C(CCN1CCC(O)(c2ccc(Cl)cc2)CC1)(c1ccccc1)c1ccccc1 [Loperamide, loperamide] | 20.04 h | 58.46 h |  | 33.9736 ng/mL | 684.09 ng/mL | 37.75 ng/mL | 0.0552 |  | BBB permeability in words (basolateral to apical) [2]: high permeability; tplateau,brain (plateau time for brain channel) ([1]; human): 180.32 h; Papp (in vitro): 9.26 ×10⁻⁶ cm/s
CC[C@]1(O)C[C@H]2CN(CCc3c([nH]c4ccccc34)[C@@](C(=O)OC)(c3cc4c(cc3OC)N(C=O)[C@H]3[C@@](O)(C(=O)OC)[C@H](OC(C)=O)[C@]5(CC)C=CCN6CC[C@]43[C@@H]65)C2)C1 [Vincristine, vincristine] |  | 2.99 h |  |  | 626.20 ng/mL |  | 0.0821 |  | Plateau reached in brain channel during the observed time ([1]; observation up to 24 h): reached plateau
CCc1nn(CCCN2CCN(c3cccc(Cl)c3)CC2)c(=O)n1CCOc1ccccc1 [Nefazodone, nefazodone] | 37.79 h | 9.01 h | 340.10 h | 13.8908 ng/mL | 161.89 ng/mL | 15.43 ng/mL |  | 3.84 ×10⁻⁶ cm/s | Kp at 1 μM (in vitro): 0.0953
